Each structure is given as a SMILES string. ≈ marks a conversion by molar mass, not a printed value.

Type in all cases: cell-based
The subject of test [1] is Bacillus subtilis ATCC 6633. Nature of the test: MIC, two-fold dilution method, Bacillus subtilis ATCC 6633. The note with it: 10^6 CFU per ml, 37° C., 18 to 20 hours; for Antibacterial Activity (MIC): Muller Hinton Broth; for MIC: ATCC6633, Muller Hinton Broth, read-out: Antibacterial Activity (MIC). The protocol:
(§1) In order to illustrate the usefulness of the invented compounds, the minimal inhibitory concentrations-(MIC) thereof against standard strains were determined and compared with Cefotaxime, a known compound. Also, the in vitro antibacterial activity was determined by a two-fold dilution method as described below: That is, the two-fold serial dilutions of the compound were made and dispersed in Muller Hinton Broth medium. Standard test strain which had the 10^6 CFU per ml was inoculated on the medium, and was incubated at 37° C. for 18 to 20 hours.

Test [2] deals with Staphylococcus aureus ATCC 65389. Nature of the test: MIC, two-fold dilution method, Staphylococcus aureus ATCC 65389. Particulars: 10^6 CFU per ml, 37° C., 18 to 20 hours; for Antibacterial Activity (MIC): Muller Hinton Broth; for MIC: ATCC65389, Muller Hinton Broth, read-out: Antibacterial Activity (MIC). The protocol: as §1
Test [3] deals with Staphylococcus epidermidis ATCC 12228. Nature of the test: MIC, two-fold dilution method, Staphylococcus epidermidis ATCC 12228. The note with it: 10^6 CFU per ml, 37° C., 18 to 20 hours; for Antibacterial Activity (MIC): Muller Hinton Broth; for MIC: ATCC12228, Muller Hinton Broth, read-out: Antibacterial Activity (MIC). The protocol: as §1
Test [4] relates to Streptococcus faecalis ATCC 10541. The test can be described thus: MIC, two-fold dilution method, Streptococcus faecalis ATCC 10541. Particulars: 10^6 CFU per ml, 37° C., 18 to 20 hours; for Antibacterial Activity (MIC): Muller Hinton Broth; for MIC: Enterococcus faecalis, ATCC10541, Muller Hinton Broth, read-out: Antibacterial Activity (MIC). The procedure: as §1
In test [5] the test system is Pseudomonas aeurginosa NCTC 10490. The test can be described thus: MIC, two-fold dilution method, Pseudomonas aeurginosa NCTC 10490. The note with it: 10^6 CFU per ml, 37° C., 18 to 20 hours; for Antibacterial Activity (MIC): Muller Hinton Broth; for MIC: NCTC10490, Muller Hinton Broth, read-out: Antibacterial Activity (MIC). The procedure:
as §1

The subject of test [6] is Esherichia coli ATCC 25922. Nature of the test: MIC, two-fold dilution method, Esherichia coli ATCC 25922. Particulars: Muller Hinton Broth, 10^6 CFU per ml, 37° C., 18 to 20 hours; for MIC: read-out: Antibacterial Activity (MIC). The protocol:
as §1

Test [7] deals with Klebsiella pneumoniae ATCC 10031. The test can be described thus: MIC, two-fold dilution method, Klebsiella pneumoniae ATCC 10031. The note with it: 10^6 CFU per ml, 37° C., 18 to 20 hours; for Antibacterial Activity (MIC): Muller Hinton Broth; for MIC: ATCC10031, Muller Hinton Broth, read-out: Antibacterial Activity (MIC). The procedure:
as §1

`CO/N=C(\C(=O)NC1C(=O)N2C(C(=O)[O-])=C(CSc3cc[n+](C)c4cc(N5CCNCC5C)c(F)cc34)CSC12)c1csc(N)n1` (stereo not drawn) [Compound I-4, 7-[(Z)-2-(2-aminothiazol-4-yl)-2-(methoxyimino)acetamido]-3-(1-methyl-6-fluoro-7-(2-methyl)piperazinylquinolinium-4-yl]thiomethyl-3-cephem-4-carboxylate]: the “Antibacterial Activity (MIC)” value amounted to 0.1 µg/mL in test [1]; 0.1 µg/mL in test [2]; 0.2 µg/mL in test [3]; 0.05 µg/mL in test [4]; 0.78 µg/mL in test [5]; 0.78 µg/mL in test [6]. In addition, in test [7], the “Antibacterial Activity (MIC)” value was found to be 0.1 µg/mL.
In the case of `C#CCO/N=C(\C(=O)NC1C(=O)N2C(C(=O)[O-])=C(CSc3cc[n+](C4CC4)c4cc(N5CCN(C)CC5)c(F)cc34)CSC12)c1csc(N)n1` (stereo not drawn) [Compound I-42, 7-[(Z)-2-(2-aminothiazol-4-yl)-2-(propargyloxyimino)acetamido]-3-[1-cyclopropyl-6-fluoro-7-(N-methylpiperazinyl)quinolinium-4-yl]thiomethyl-3-cephem-4-carboxylate], the MIC in test [1] turned out to be 0.2 µg/mL (≈ 0.271 µM); in test [2], 0.78 µg/mL (≈ 1.06 µM); in test [3], 0.78 µg/mL (≈ 1.06 µM); in test [4], 0.39 µg/mL (≈ 0.529 µM); in test [5], 3.13 µg/mL (≈ 4.25 µM); in test [6], 3.13 µg/mL (≈ 4.25 µM). In addition, the MIC in test [7] amounted to 3.13 µg/mL (≈ 4.25 µM).
Regarding `CO/N=C(\C(=O)NC1C(=O)N2C(C(=O)[O-])=C(CSc3cc[n+](C4CC4)c4cc(-n5cnc(C)c5)c(F)cc34)CSC12)c1csc(N)n1` (stereo not drawn) [Compound I-20, 7-[(Z)-2-(2-aminothiazol-4-yl)-2-(methoxyimino)acetamido]-3-[1-cyclopropyl-6-fluoro-7-(4-methylimidazolyl)quinolinium-4-yl]thiomethyl-3-cephem-4-carboxylate], the “Antibacterial Activity (MIC)” value in test [1] turned out to be 0.2 µg/mL; in test [2], 0.78 µg/mL; in test [3], 0.39 µg/mL; in test [4], 0.2 µg/mL; in test [5] it was 1.56 µg/mL; in test [6] it was 1.56 µg/mL. Further, the “Antibacterial Activity (MIC)” value in test [7] came to 0.1 µg/mL.
`C=CCO/N=C(\C(=O)NC1C(=O)N2C(C(=O)[O-])=C(CSc3cc[n+](C)c4cc(N5CCNCC5)c(F)cc34)CS[C@H]12)c1csc(N)n1` (stereo partly drawn) [Compound I-21, 7-[(Z)-2-(2-aminothiazol-4-yl)-2-(allyloxyimino)acetamido]-3-(1-methyl-6-fluoro-7-piperazinylquinolinium-4-yl)thiomethyl-3-cephem-4-carboxylate]: the MIC worked out at 0.39 µg/mL (≈ 0.558 µM) in test [1]; 0.2 µg/mL (≈ 0.286 µM) in test [2]; 0.1 µg/mL (≈ 0.143 µM) in test [3]; 0.025 µg/mL (≈ 0.0358 µM) in test [4]; 6.25 µg/mL (≈ 8.94 µM) in test [5]; 3.13 µg/mL (≈ 4.48 µM) in test [6]. Besides, the MIC in test [7] was 0.1 µg/mL (≈ 0.143 µM).
With `C#CCO/N=C(\C(=O)NC1C(=O)N2C(C(=O)[O-])=C(CSc3cc[n+](CC)c4cc(N5CCNCC5C)c(F)cc34)CS[C@H]12)c1csc(N)n1` (stereo partly drawn) [Compound I-48, 7-[(Z)-2-(2-aminothiazol-4-yl)-2-(propargyloxyimino)acetamido]-3-[1-ethyl-6-fluoro-7-(2-methylpiperazinyl)quinolinium-4-yl]thiomethyl-3-cephem-4-carboxylate], the “Antibacterial Activity (MIC)” value turned out to be 0.1 µg/mL in test [1]; 0.39 µg/mL in test [2]; 0.78 µg/mL in test [3]; 0.39 µg/mL in test [4]; 1.56 µg/mL in test [5]; 3.13 µg/mL in test [6]. Further, in test [7], the “Antibacterial Activity (MIC)” value stood at 1.56 µg/mL.
As to `CCN1CCN(c2cc3c(cc2F)c(SCC2=C(C(=O)[O-])N4C(=O)C(NC(=O)/C(=N\OC)c5csc(N)n5)C4SC2)cc[n+]3CC)CC1` (stereo not drawn) [Compound I-11, 7-[(Z)-2-(2-aminothiazol-4-yl)-2-(methoxyimino)acetamido]-3-[1-ethyl-6-fluoro-7-(1-ethylpiperazinyl)quinolinium-4-yl]thiomethyl-3-cephem-4-carboxylat], the MIC was 0.1 µg/mL (≈ 0.14 µM) in test [1]; 0.1 µg/mL (≈ 0.14 µM) in test [2]; 0.2 µg/mL (≈ 0.28 µM) in test [3]; 0.05 µg/mL (≈ 0.0699 µM) in test [4]; 1.56 µg/mL (≈ 2.18 µM) in test [5]; 1.56 µg/mL (≈ 2.18 µM) in test [6]. In addition, the MIC in test [7] came out at 0.39 µg/mL (≈ 0.546 µM).
Take `C#CCO/N=C(\C(=O)NC1C(=O)N2C(C(=O)[O-])=C(CSc3cc[n+](CC=C)c4cc(N5CCN(CC)CC5)c(F)cc34)CSC12)c1csc(N)n1` (stereo not drawn) [Compound I-51, 7-[(Z)-2-(2-aminothiazol-4-yl)-2-(propargyloxyimino)acetamido]-3-[1-allyl-6-fluoro-7-(1-ethylpiperazinyl)quinolinium-4-yl]thiomethyl-3-cephem-4-carboxylate]: the MIC was 0.78 µg/mL (≈ 1.04 µM) in test [1]; 3.13 µg/mL (≈ 4.17 µM) in test [2]; 1.56 µg/mL (≈ 2.08 µM) in test [3]; 1.56 µg/mL (≈ 2.08 µM) in test [4]; 1.56 µg/mL (≈ 2.08 µM) in test [5]; 0.78 µg/mL (≈ 1.04 µM) in test [6]. Also, the MIC in test [7] is 0.78 µg/mL (≈ 1.04 µM).
Consider `C#CCO/N=C(\C(=O)NC1C(=O)N2C(C(=O)[O-])=C(CSc3cc[n+](C4CC4)c4cc(N5CCNCC5)c(F)cc34)CS[C@H]12)c1csc(N)n1` (stereo partly drawn) [Compound I-41, 7-[(Z)-2-(2-aminothiazol-4-yl)-2-(propargyloxyimino)acetamido]-3-(1-cyclopropyl-6-fluoro-7-piperazinylquinolinium-4-yl)thiomethyl-3-cephem-4-carboxylate], for which the MIC was determined as 0.2 µg/mL (≈ 0.277 µM) in test [1]; 0.78 µg/mL (≈ 1.08 µM) in test [2]; 0.78 µg/mL (≈ 1.08 µM) in test [3]; 0.39 µg/mL (≈ 0.54 µM) in test [4]; 3.13 µg/mL (≈ 4.33 µM) in test [5]; 3.13 µg/mL (≈ 4.33 µM) in test [6]. In addition, in test [7], the MIC worked out at 6.25 µg/mL (≈ 8.65 µM).
`CC(C)(O/N=C(\C(=O)NC1C(=O)N2C(C(=O)[O-])=C(CSc3cc[n+](C4CC4)c4cc(N5CCNCC5)c(F)cc34)CS[C@H]12)c1csc(N)n1)C(=O)O` (stereo partly drawn) [Compound I-57, 7-[(Z)-2-(2-aminothiazol-4-yl)-2-(2-carboxyprop-2-oxyimino)acetamido]-3-(1-cyclopropyl-6-fluoro-7-piperazinylquinolinium-4-yl)thiomethyl-3-cephem-4-carboxylate]: the MIC in test [1] was 0.78 µg/mL (≈ 1.01 µM); in test [2], 6.25 µg/mL (≈ 8.11 µM); in test [3], 6.25 µg/mL (≈ 8.11 µM); in test [4], 1.56 µg/mL (≈ 2.02 µM); in test [5], 0.78 µg/mL (≈ 1.01 µM); in test [6], 0.78 µg/mL (≈ 1.01 µM). In addition, the MIC in test [7] is 0.39 µg/mL (≈ 0.506 µM).
On to `CC[n+]1ccc(SCC2=C(C(=O)[O-])N3C(=O)C(NC(=O)/C(=N\OC)c4csc(N)n4)[C@H]3SC2)c2cc(F)c(N3CCNCC3C)cc21` (stereo partly drawn) [Compound I-12, 7-[(Z)-2-(2-aminothiazol-4-yl)-2-(methoxyimino)acetamido]-3-[1-ethyl-6-fluoro-7-(2-methylpiperazinyl)quinolinium-4-yl]thiomethyl-3-cephem-4-carboxylate], for which the “Antibacterial Activity (MIC)” value in test [1] is 0.1 µg/mL; in test [2], 0.1 µg/mL; in test [3] it was 0.2 µg/mL; in test [4] it was 0.025 µg/mL; in test [5], 1.56 µg/mL; in test [6], 1.56 µg/mL. Besides, the “Antibacterial Activity (MIC)” value in test [7] is 0.39 µg/mL.
With `CCN1CCN(c2cc3c(cc2F)c(SCC2=C(C(=O)[O-])N4C(=O)C(NC(=O)/C(=N\OC)c5csc(N)n5)C4SC2)cc[n+]3C)CC1` (stereo not drawn) [Compound I-3, 7-[(Z)-2-(2-aminothiazol-4-yl)-2-(methoxyimino)acetamido]-3-[1-methyl-6-fluoro-7-(1-ethylpiperazinyl)quinolinium-4-yl]thiomethyl-3-cephem-4-carboxylate], the MIC in test [1] came to 0.2 µg/mL (≈ 0.285 µM); in test [2], 0.05 µg/mL (≈ 0.0713 µM); in test [3], 0.1 µg/mL (≈ 0.143 µM); in test [4], 0.025 µg/mL (≈ 0.0357 µM); in test [5] it was 0.78 µg/mL (≈ 1.11 µM); in test [6], 0.78 µg/mL (≈ 1.11 µM). Further, the MIC in test [7] came to 0.1 µg/mL (≈ 0.143 µM).
With `C=CCO/N=C(\C(=O)NC1C(=O)N2C(C(=O)[O-])=C(CSc3cc[n+](CC)c4cc(N5CCNCC5)c(F)cc34)CS[C@H]12)c1csc(N)n1` (stereo partly drawn) [Compound I-29, 7-[(Z)-2-(2-aminothiazol-4-yl)-2-(allyloxyimino)acetamido]-3-(1-ethyl-6-fluoro-7-piperazinylquinolinium-4-yl)thiomethyl-3-cephem-4-carboxylate], the minimal inhibitory concentration (MIC) is 0.39 µg/mL (≈ 0.547 µM) in test [1]; 0.78 µg/mL (≈ 1.09 µM) in test [2]; 0.78 µg/mL (≈ 1.09 µM) in test [3]; 0.39 µg/mL (≈ 0.547 µM) in test [4]; 3.13 µg/mL (≈ 4.39 µM) in test [5]; 1.56 µg/mL (≈ 2.19 µM) in test [6]. For the same compound, the MIC in test [7] came out at 0.39 µg/mL (≈ 0.547 µM).

Values taken from patent publication US5663331A, “Cephalosporin compounds” (Il-Dong Pharm. Co., Ltd., priority 1992, dated 1997).
